Data: patent US20110086395A1, “NOVEL MICROORGANISM AND ITS USE IN LIGNOCELLULOSE DETOXIFICATION” (priority 2009, published 2011)
Marks after values point to notes of the source that are not given here.

Assays:
C. basilensis HMF14 [1] = assay: Degradation of constituents of lignocellulosic hydrolysate, shake-flask cultures with each compound as single carbon source; format: cell-based, Cupriavidus basilensis
Excerpt: In addition to the furan derivatives, lignocellulosic hydrolysate also contains many other components that can inhibit fermentative production of biochemicals. While C. basilensis HMF14 is unable to degrade the sugars present in lignocellulosic hydrolysate, it preferably degrades many of the other toxic constituents, as illustrated in shake-flask cultures with each compound as a single carbon source (table 3).

Cupriavidus sp. HMF14 = assay: Growth of Cupriavidus sp. HMF14 on carbon sources (strain characterization); format: cell-based, Cupriavidus basilensis
C. basilensis HMF14 [2] = assay: Detoxification of wheat straw hydrolysate by C. basilensis HMF14; format: cell-based, Cupriavidus basilensis; conditions: for Removal from wheat straw hydrolysate: after ten hours of cultivation; for Concentration in hydrolysate during cultivation: during the first ten hours of cultivation
Procedure: Wheat straw hydrolysate was produced by dilute-acid hydrolysis (obtained from TNO Quality of Life, Zeist, The Netherlands). The hydrolysate was neutralized by adding 37 mM phosphate buffer (pH 7) and adjusting the pH to 7.0 with 10 M NaOH, resulting in a brown precipitate. After addition of minimal medium components, the solution was centrifuged at 10 000×g for 5 min. The supernatant was filter sterilized through a sterile PTFE filter with a pore size of 0.22 μm. The resulting medium (MMhyd) was inoculated with an overnight pre-culture of C. basilensis HMF14 in minimal medium with 3 mM HMF, 3 mM furfural and 12 mM sodium succinate.
(§1) Bacterial growth was determined by measuring optical density at 600 nm (OD600) using a Biowave Cell Density Meter (WPA Ltd) or a μQuant MQX200 universal microplate spectrophotometer (Bio-tek), using flat-bottom 96-well microplates (Greiner). Furan derivatives were analyzed on an Agilent 1100 system equipped with a diode array detector set at 230 nm. The column used was a Zorbax Eclipse XDB-C8 (length, 150 mm; internal diameter, 4.6 mm; particle size, 5 μm; Agilent) operated at 25° C. As eluent, a gradient of acetonitrile in 20 mM KH2PO4 (pH 2) with 1% acetonitrile was used at a flow of 1.2 ml/min, increasing from 0 to 5% in 3.5 min and from 5 to 40% in 2.5 min, set as smooth gradients.
Glucose, xylose and arabinose were analyzed by ion chromatography (Dionex ICS3000 system), using a CarboPac PA20 column (length, 150 mm; internal diameter, 3 mm) with 10 mM NaOH at a flow rate of 0.5 ml·min−1 as the eluent.

HmfFG = assay: Decarboxylase activity of HmfFG in cell extracts; format: biochemical; conditions: cell extracts of wildtype C. basilensis HMF14 and P. putida S12 expressing HmfFG
C. basilensis HMF14 [3] = assay: Growth of C. basilensis HMF14 on furan derivatives as sole carbon source; format: cell-based, Cupriavidus basilensis; conditions: minimal medium, 3.5 mM compound as sole carbon source
Procedure: Cultures were performed either in Luria broth (LB) or in a minimal medium (MM). Enrichment cultures were performed in MM with 20 mM HMF as the carbon source (MMH20), supplemented as indicated with 0.1 g/l yeast extract as vitamin source (MMyH20). Solid media contained 1.5% agar. Soil and water samples were collected from the botanical garden of the Delft University of Technology and from a peat lake named ‘het Kootwijkerveen’ near Apeldoorn, The Netherlands. The samples were mixed and approximately 1 g was used to inoculate 50 ml MMH2O or MMyH2O in 500-ml Erlenmeyer flasks that were incubated at 30° C. for two days in a rotary shaker. One-ml samples were transferred twice to fresh medium and incubated until bacterial growth was apparent (OD600>1). The final enrichment cultures were streaked onto solid MMH10 and MMyH10 and incubated at 30° C. until colonies appeared.
as §1
In addition to HMF, other furan derivatives are present in lignocellulosic hydrolysates. […] Growth was observed on all tested furan derivatives, with slightly different growth characteristics (table 1). In cultures on furfural, furfural was initially rapidly converted to furfuryl alcohol, while also a small amount of furoic acid was formed (FIG. 1). Without wishing to be bound to any particular theory, conversion of furfural to its alcohol and/or acid form appears to be a common mechanism of furfural detoxification. At the onset of logarithmic growth, furfuryl alcohol production decreased in favour of biomass formation, which likely occurs via furoic acid. Similarly, HMF acid and -alcohol were formed in cultures with HMF as the carbon source. In addition, trace amounts of 2,5-furandicarboxylic acid and furoic acid were found in the HMF cultures (not shown).

C. basilensis HMF14 [4] = assay: Tolerance of C. basilensis HMF14 towards furfural and HMF, shake-flask cultures; format: cell-based, Cupriavidus basilensis; conditions: for Growth in the presence of compound: 5 mM; for Growth after 24 h of cultivation: shake-flask cultures with 3-15 mM furfural or HMF
Procedure: C. basilensis HMF14 grew in the presence of 5 mM of furfural or HMF (0.48 g/l, and 0.63 g/l respectively). However, since the concentration of these toxic compounds is often higher in lignocellulosic hydrolysates, with values ranging from 0 to 3.5 g/l for furfural, and from 0 to 5.9 g/l for HMF, the tolerance of C. basilensis HMF14 towards furfural and HMF was determined in shake-flask cultures with 3-15 mM furfural or HMF (FIG. 2, table 2). […] Also in the HMF cultures, no stable exponential growth was observed, but the apparent growth rate decreased rather than increased with increasing HMF concentrations.

[5] = system: P. putida S12 pJT′hmfABCDE; assay: Growth of P. putida S12 pJT′hmfABCDE on furanics as sole carbon source; format: cell-based, Pseudomonas putida; conditions: growth initially poor
Excerpt: (§2) First, the furfural cluster hmfABCDE was introduced into P. putida S12. […] Therefore, strain S12 pJT′hmfABCDE was repeatedly transferred to fresh mineral salts medium with furfural as the sole carbon source.

P. putida strain S12_fur = assay: Growth of P. putida S12_fur on furfural as sole carbon source; format: cell-based, Pseudomonas putida
Excerpt: as §2

P. putida S12_HMF = assay: Growth of P. putida S12_HMF on furfural or HMF as sole carbon source; format: cell-based, Pseudomonas putida
Excerpt: Subsequently, the hmfFGH genes were cloned into P. putida S12_fur. […] Gene hmfH′ was apparently dispensable for growth on HMF, confirming that the encoded gene had no function in HMF metabolism. Nor was the gene essential for HMF transport in P. putida S12. Thus, also all genes required for the utilization of HMF were characterized, and their functionality was reconfirmed by functional expression in a heterologous host.

HmfH = assay: Oxidation by HmfH in cell extracts; format: biochemical; conditions: cell extracts of wildtype C. basilensis HMF14 and P. putida S12 expressing HmfH
Procedure: C. basilensis HMF14 mutants with a disrupted hmfH gene accumulated HMF acid when cultured in the presence of HMF. Cell extracts of both wildtype C. basilensis HMF14 and P. putida S12 expressing HmfH formed FDCA when incubated with HMF acid, confirming that HmfH catalyzes the oxidation of the HMF-monocarboxylic acid to the dicarboxylic acid form.
Analogous to the furfural pathway, no specific genes were identified for the oxidations in the upper HMF metabolic pathway leading from HMF-alcohol to HMF and HMF-acid. Also these oxidations were concluded to be performed by non-specific, redundant dehydrogenases which activities were observed both in C. basilensis HMF14 and P. putida S12 (Table 2). However, it was observed that also HmfH could oxidize HMF, furfural, and furfuryl alcohol to the corresponding acids, respectively, furfural. Apparently, this oxidase is essential for the formation of FDCA from HMF-acid but also provides an oxidase-alternative to the non-specific alcohol and aldehyde dehydrogenases that constitute the upper metabolic pathways for HMF and furfural.

Ralstonia eutropha = conditions: cited from earlier work
[6] = system: P. putida S12 strains expressing only HmfABCD or HmfABC; assay: Growth of P. putida S12 strains expressing only HmfABCD or HmfABC; format: cell-based, Pseudomonas putida
[7] = shake-flask cultures, compound as single carbon source

In the case of `O=Cc1ccc(O)cc1` [4-hydroxybenzaldehyde], the “Substrate utilization by C. basilensis HMF14” value (“Substrate utilization” for short) (C. basilensis HMF14 [1]; [7]) was “Y”.
In the case of `O=C(O)c1ccc(O)cc1` [4-hydroxybenzoic acid], the “Substrate utilization” value (C. basilensis HMF14 [1]; [7]) was “Y”.
With `OCc1ccc(O)cc1` [4-hydroxybenzyl alcohol] the “Substrate utilization” value (C. basilensis HMF14 [1]; [7]) was “Y”.
For `CC(=O)O` [Acetic acid], the “Substrate utilization” value (C. basilensis HMF14 [1]; [7]) was “Y”, the “Growth on carbon source” value (Cupriavidus sp. HMF14) was “able to grow” and the “Removal from wheat straw hydrolysate” value (C. basilensis HMF14 [2]) was “completely removed”.
For `O=C[C@@H](O)[C@H](O)[C@H](O)CO` [Arabinose], the “Substrate utilization” value (C. basilensis HMF14 [1]; [7]) was “N”, the “Growth on carbon source” value (Cupriavidus sp. HMF14) was “No growth” and the “Concentration in hydrolysate during cultivation” value (C. basilensis HMF14 [2]) was “stable”.
With `O=C(O)c1ccc(C(=O)O)o1` [FDCA, 2,5-furan-dicarboxylic acid] the “Decarboxylation by HmfFG” value (HmfFG) was “formed 2-furoic acid”.
In the case of `COc1cc(/C=C/C(=O)O)ccc1O` [Ferulic acid], the “Substrate utilization” value (C. basilensis HMF14 [1]; [7]) was “Y”.
With `O=CO` [Formic acid] the “Substrate utilization” value (C. basilensis HMF14 [1]; only co-utilized with a different carbon source) was “Y^b” and the “Removal from wheat straw hydrolysate” value (C. basilensis HMF14 [2]) was “completely removed”.
For `O=Cc1ccco1` [Furfural], the “Max. OD600” value (C. basilensis HMF14 [3]) was 1.09, the μmax (C. basilensis HMF14 [3]) was 0.22 h⁻¹ and the “Substrate utilization” value (C. basilensis HMF14 [1]; [7]) was “Y”. The “Growth in the presence of compound” value (C. basilensis HMF14 [4]) was “grew”, the “Growth after 24 h of cultivation” value (C. basilensis HMF14 [4]) was “growth was observed at all concentrations tested” and the “Utilization as sole carbon source” value [5] was “able to utilize”. For the same molecule, the Biomass yield (P. putida strain S12_fur) was 51 % (C-mol biomass/C-mol substrate), the Growth rate (P. putida strain S12_fur; after 10 serial transfers) was 0.30 h⁻¹ and the Growth rate (P. putida S12_HMF) was 0.23 h⁻¹. The Yield (P. putida S12_HMF) was 40 % (C-mol biomass/C-mol substrate), the “Oxidation by HmfH” value (HmfH) was “could oxidize” and the “Metabolic activity of R. Eutropha on compound” value (Ralstonia eutropha) was “high metabolic activity”.
For `OCc1ccco1` [Furfuryl alcohol], the “Max. OD600” value (C. basilensis HMF14 [3]) was 1.08, the μmax (C. basilensis HMF14 [3]) was 0.22 h⁻¹ and the “Substrate utilization” value (C. basilensis HMF14 [1]; [7]) was “Y”. For the same molecule, the “Utilization as sole carbon source” value [5] was “able to utilize” and the “Oxidation by HmfH” value (HmfH) was “could oxidize”.
For `O=C(O)c1ccco1` [Furoic acid], the “Max. OD600” value (C. basilensis HMF14 [3]) was 0.99, the μmax (C. basilensis HMF14 [3]) was 0.29 h⁻¹ and the “Utilization as sole carbon source” value [5] was “able to utilize”. The Growth on compound [6] was “failed to grow”.
In the case of `COc1ccccc1O` [Guaiacol], the “Substrate utilization” value (C. basilensis HMF14 [1]; [7]) was “Y”.
With `O=C(O)c1ccc(CO)o1` [HMF acid, 5-hydroxymethyl-2-furancarboxylic acid] the “Decarboxylation by HmfFG” value (HmfFG) was “not decarboxylated” and the “Oxidation by HmfH” value (HmfH) was “formed FDCA”.
In the case of `O=Cc1ccc(CO)o1` [HMF, 5-(hydroxymethyl)-furfural], the “Max. OD600” value (C. basilensis HMF14 [3]) was 0.95, the μmax (C. basilensis HMF14 [3]) was 0.25^a h−1 and the “Substrate utilization” value (C. basilensis HMF14 [1]; [7]) was “Y”. For the same molecule, the “Growth in the presence of compound” value (C. basilensis HMF14 [4]) was “grew”, the “Growth after 24 h of cultivation” value (C. basilensis HMF14 [4]) was “growth was observed at all concentrations tested” and the Growth rate (P. putida S12_HMF) was 0.23 h⁻¹. For the same molecule, the Yield (P. putida S12_HMF) was 40 % (C-mol biomass/C-mol substrate) and the “Oxidation by HmfH” value (HmfH) was “could oxidize”.
For `CC(=O)CCC(=O)O` [Levulinic acid], the “Substrate utilization” value (C. basilensis HMF14 [1]; [7]) was “Y”.
In the case of `Oc1ccccc1` [Phenol], the “Substrate utilization” value (C. basilensis HMF14 [1]; [7]) was “Y” and the “Growth on carbon source” value (Cupriavidus sp. HMF14) was “able to grow”.
In the case of `COc1cc(C=O)cc(OC)c1O` [Syringaldehyde], the “Substrate utilization” value (C. basilensis HMF14 [1]; [7]) was “N”.
In the case of `COc1cc(C(=O)O)cc(OC)c1O` [Syringic acid], the “Substrate utilization” value (C. basilensis HMF14 [1]; [7]) was “N”.
In the case of `COc1cccc(OC)c1O` [Syringol], the “Substrate utilization” value (C. basilensis HMF14 [1]; [7]) was “N”.
With `COc1cc(C(=O)O)ccc1O` [Vanillic acid] the “Substrate utilization” value (C. basilensis HMF14 [1]; [7]) was “Y”.
In the case of `COc1cc(C=O)ccc1O` [Vanillin], the “Substrate utilization” value (C. basilensis HMF14 [1]; [7]) was “Y”.
For `COc1cc(CO)ccc1O` [Vanillyl alcohol], the “Substrate utilization” value (C. basilensis HMF14 [1]; [7]) was “Y”.
For `O=C[C@H](O)[C@@H](O)[C@H](O)CO` [Xylose], the “Substrate utilization” value (C. basilensis HMF14 [1]; [7]) was “N”, the “Growth on carbon source” value (Cupriavidus sp. HMF14) was “No growth” and the “Concentration in hydrolysate during cultivation” value (C. basilensis HMF14 [2]) was “stable”.
In the case of `c1ccccc1` [benzene], the “Growth on carbon source” value (Cupriavidus sp. HMF14) was “able to grow”.
With `O=C(O)CC(O)(CC(=O)O)C(=O)O` [citrate] the “Growth on carbon source” value (Cupriavidus sp. HMF14) was “able to grow”.
For `O=C(CO)[C@@H](O)[C@H](O)[C@H](O)CO` [fructose], the “Metabolic activity of R. Eutropha on compound” value (Ralstonia eutropha) is given as “high metabolic activity”.
With `O=C(O)[C@H](O)[C@@H](O)[C@H](O)[C@H](O)CO` [gluconate] the “Growth on carbon source” value (Cupriavidus sp. HMF14) was “able to grow”.
In the case of `O=C(O)CCC(=O)O` [succinate], the “Growth on carbon source” value (Cupriavidus sp. HMF14) was “able to grow”.
In the case of `Cc1ccccc1` [toluene], the “Growth on carbon source” value (Cupriavidus sp. HMF14) was “able to grow”.
